Measured values taken from US12479895B2, “C-terminal CDNF and MANF fragments, pharmaceutical compositions comprising same and uses thereof” (MyNeuroCure Oy, priority 2018, dated 2025).

Tests used:
[1] = system: ER stressed SCG neurons; assay: Survival of tunicamycin-treated (ER stressed) SCG sympathetic neurons after microinjection; format: cell-based, mice; conditions: for survived neurons as % compared to neurons grown in the presence of NGF: Table 1A (FIG. 14), microinjected into cytoplasm, tunicamycin 2 μM, CDNF (400); for Fold change of survived neurons compared to neurons injected with PBS: data of Table 1 divided by values of PBS
Procedure: Non-neuronal cells were removed by extensive preplating. Almost pure neurons were cultured in polyornithine/laminin (Sigma)-coated 35-mm plastic dishes in the small-size standard microislands in the Neurobasal medium and B27 supplement (Invitrogen/Gibco) in the presence of 30 ng/ml mouse nerve growth factor (NGF) (Promega) for 5-6 days. NGF was deprived by extensive washing and addition of the function-blocking anti-NGF antibodies (Roche). The neurons were pressure-microinjected with special neuronal microinjection equipment (Hellman et al., 2011; Hamner et al., 2001; Lindholm et al., 2002; Sun et al., 2001; Yu et al., 2003)(Sun et al., 2001; Sun et al., 2003). For the survival assay, all neurons on the microislands were counted in the beginning (initial number) and the end (three days) of the experiment and expressed as % of initial.
Microinjection of the sympathetic neurons was performed as described earlier (Yu, L. Y., Jokitalo, E., Sun, Y. F., Mehlen, P., Lindholm, D., Saarma, M., and Arumae, U. (2003) J Cell Biol. 163, 987-997). Plasmids for CDNF have been described earlier. Briefly, newborn mouse SCG neurons were grown with NGF (Promega) for 5-6 days then the nuclei were microinjected with the expression plasmids for full-length (FL)-CDNF and C-CDNF together with a reporter plasmid for enhanced green fluorescent protein (EGFP), using vector concentration of 10 ng/ul in each experiment. […] For protein microinjection, recombinant full length (FL)-CDNF, C-CDNF proteins in PBS at 200 ng/ul were microinjected directly into the cytoplasm together with fluorescent reporter Dextran Texas Red (MW 70000 Da) (Invitrogen, Molecular Probes) that facilitates identification of the successfully injected neurons. Next day tunicamycin (2 μM) was added, and after 3 days the living fluorescent neurons were counted. Living fluorescent (EGFP-expressing or Dextran Texas Red-containing) neurons were “blindly” counted three days later and expressed as percent of initial living fluorescent neurons counted 2-3 hours after microinjection. The experiments with plasmids were repeated on independent cultures 5 times for plasmid experiment, whereas four independent protein injection experiments were performed. On average, 50-80 neurons were successfully injected per experimental group. The results were expressed as the mean±the SEM. Data of each experimental group was compared with control plasmid PCR3.1 (vector) or PBS (in the protein injection experiments) by one-way ANOVA and post hoc Dunnett's t test. The null hypothesis was rejected at p<0.05.

[2] = system: dopamine neurons; assay: Survival of TH-positive dopamine neurons in dissociated midbrain floor cultures; format: cell-based, mouse; conditions: for survived neurons as % compared to neurons grown in the presence of GDNF: Table 3A (FIG. 15), 5 days; for Fold change of survived neurons compared to neurons grown without growth factors: data of Table 3 divided by values of no factor
Procedure: To study the dopamine neurons (Yu et al., 2008; Yu and Arumae, 2008), the midbrain floors were dissected from the ventral mesencephali of 13.5-d-old NMRI strain mouse embryos. Tissues were incubated with 0.5% trypsin (ICN Biomedical), then mechanically dissociated using a large fire-polished Pasteur pipette. The neurons were grown on the poly-L-ornithine-coated (Sigma) 96-well culture plates in DMEM/F12 medium (Invitrogen) containing N2 supplement (Invitrogen) in the presence or absence of GDNF (100 ng/ml) or with CDNF, MANF, C-CDNF and C-MANF polypeptides at different concentrations for five days. Same amount of the neurons were plated to each well at the beginning of the experiments. The cultures without added neurotrophic factors served as the negative control. As the midbrain cultures contain several neuronal types, the cultures were fixed and immunostained with the antibodies to tyrosine hydroxylase (TH) (Millipore), a specific marker for the dopaminergic neurons. Images of each well were scanned by CellInsight™ and immunopositive neurons were counted by CellProfiler and CellProfiler analyst software. Data are expressed as a percentage of GDNF-maintained TH-positive neurons. All experiments were repeated at least three times on the independent cultures. The results were expressed as the mean the SEM and were tested for the significance by either one-way ANOVA and Tukey's post hoc test or by two-tailed Student's t-test. The null hypothesis was rejected at P≤0.05.

Sequence	survived neurons as % compared to neurons grown in the presence of NGF ([1]; AVG of exp1-2) [% NGF]	survived neurons as % compared to neurons grown in the presence of NGF ([1]; exp1, counted after 3 days) [% NGF]	survived neurons as % compared to neurons grown in the presence of NGF ([1]; exp2, counted after 3 days) [% NGF]	Fold change of survived neurons compared to neurons injected with PBS ([1]; Table 2, AVG)	Fold change of survived neurons compared to neurons injected with PBS ([1]; Table 2, exp1)	Fold change of survived neurons compared to neurons injected with PBS ([1]; Table 2, exp2)	survived neurons as % compared to neurons grown in the presence of GDNF ([2]; AVG, 1 ng/ml) [% GDNF]	survived neurons as % compared to neurons grown in the presence of GDNF ([2]; AVG, 10 ng/ml) [% GDNF]	survived neurons as % compared to neurons grown in the presence of GDNF ([2]; AVG, 100 ng/ml) [% GDNF]	survived neurons as % compared to neurons grown in the presence of GDNF ([2]; AVG, 1000 ng/ml) [% GDNF]	survived neurons as % compared to neurons grown in the presence of GDNF ([2]; exp1, 1 ng/ml) [% GDNF]	survived neurons as % compared to neurons grown in the presence of GDNF ([2]; exp1, 10 ng/ml) [% GDNF]	survived neurons as % compared to neurons grown in the presence of GDNF ([2]; exp1, 100 ng/ml) [% GDNF]	survived neurons as % compared to neurons grown in the presence of GDNF ([2]; exp1, 1000 ng/ml) [% GDNF]	survived neurons as % compared to neurons grown in the presence of GDNF ([2]; exp2, 1 ng/ml) [% GDNF]	survived neurons as % compared to neurons grown in the presence of GDNF ([2]; exp2, 10 ng/ml) [% GDNF]	survived neurons as % compared to neurons grown in the presence of GDNF ([2]; exp2, 100 ng/ml) [% GDNF]	survived neurons as % compared to neurons grown in the presence of GDNF ([2]; exp2, 1000 ng/ml) [% GDNF]	survived neurons as % compared to neurons grown in the presence of GDNF ([2]; exp3, 1 ng/ml) [% GDNF]	survived neurons as % compared to neurons grown in the presence of GDNF ([2]; exp3, 10 ng/ml) [% GDNF]	other results
TLDLASVDLRKMRVAELKQILHSWGEECRACAEKTDYVNLIQELAPKYA (listed as Homo sapiens) [pep4]	79.15	81.25	77.05	2.16 Fold to PBS	2.37 Fold to PBS	1.94 Fold to PBS	69.14	70.54	70.14	76.27	61.71	64.44	69.02	68.35	79.99	81.47	73.24	83.39	65.71	65.71	survived neurons as % compared to neurons grown in the presence of GDNF ([2]; exp3, 100 ng/ml): 68.14 % GDNF; survived neurons as % compared to neurons grown in the presence of GDNF ([2]; exp3, 1000 ng/ml): 77.07 % GDNF; Fold change of survived neurons compared to neurons grown without growth factors ([2]; Table 4, AVG, 1 ng/ml): 1.12 fold; Fold change of survived neurons compared to neurons grown without growth factors ([2]; Table 4, AVG, 10 ng/ml): 1.14 fold; Fold change of survived neurons compared to neurons grown without growth factors ([2]; Table 4, AVG, 100 ng/ml): 1.14 fold; Fold change of survived neurons compared to neurons grown without growth factors ([2]; Table 4, AVG, 1000 ng/ml): 1.24 fold; Fold change of survived neurons compared to neurons grown without growth factors ([2]; Table 4, exp1, 1 ng/ml): 1.08 fold; Fold change of survived neurons compared to neurons grown without growth factors ([2]; Table 4, exp1, 10 ng/ml): 1.13 fold; Fold change of survived neurons compared to neurons grown without growth factors ([2]; Table 4, exp1, 100 ng/ml): 1.21 fold; Fold change of survived neurons compared to neurons grown without growth factors ([2]; Table 4, exp1, 1000 ng/ml): 1.20 fold; Fold change of survived neurons compared to neurons grown without growth factors ([2]; Table 4, exp2, 1 ng/ml): 1.27 fold; Fold change of survived neurons compared to neurons grown without growth factors ([2]; Table 4, exp2, 10 ng/ml): 1.29 fold; Fold change of survived neurons compared to neurons grown without growth factors ([2]; Table 4, exp2, 100 ng/ml): 1.16 fold; Fold change of survived neurons compared to neurons grown without growth factors ([2]; Table 4, exp2, 1000 ng/ml): 1.32 fold; Fold change of survived neurons compared to neurons grown without growth factors ([2]; Table 4, exp3, 1 ng/ml): 1.01 fold; Fold change of survived neurons compared to neurons grown without growth factors ([2]; Table 4, exp3, 10 ng/ml): 1.01 fold; Fold change of survived neurons compared to neurons grown without growth factors ([2]; Table 4, exp3, 100 ng/ml): 1.05 fold; Fold change of survived neurons compared to neurons grown without growth factors ([2]; Table 4, exp3, 1000 ng/ml): 1.19 fold
TLDLASVDLRKMRVAELKQILHSWGEECRACAEKTDYVNLIQELAPKYAATHPKTEL (listed as Homo sapiens) [pep2]	77.52	79.71	75.32	2.11 Fold to PBS	2.32 Fold to PBS	1.90 Fold to PBS	67.69	69.82	68.98	66.30	81.18	74.74	81.00	83.01	52.61	58.93	47.98	52.95	69.28	75.80	survived neurons as % compared to neurons grown in the presence of GDNF ([2]; exp3, 100 ng/ml): 77.95 % GDNF; survived neurons as % compared to neurons grown in the presence of GDNF ([2]; exp3, 1000 ng/ml): 62.94 % GDNF; Fold change of survived neurons compared to neurons grown without growth factors ([2]; Table 4, AVG, 1 ng/ml): 1.11 fold; Fold change of survived neurons compared to neurons grown without growth factors ([2]; Table 4, AVG, 10 ng/ml): 1.14 fold; Fold change of survived neurons compared to neurons grown without growth factors ([2]; Table 4, AVG, 100 ng/ml): 1.13 fold; Fold change of survived neurons compared to neurons grown without growth factors ([2]; Table 4, AVG, 1000 ng/ml): 1.09 fold; Fold change of survived neurons compared to neurons grown without growth factors ([2]; Table 4, exp1, 1 ng/ml): 1.42 fold; Fold change of survived neurons compared to neurons grown without growth factors ([2]; Table 4, exp1, 10 ng/ml): 1.31 fold; Fold change of survived neurons compared to neurons grown without growth factors ([2]; Table 4, exp1, 100 ng/ml): 1.42 fold; Fold change of survived neurons compared to neurons grown without growth factors ([2]; Table 4, exp1, 1000 ng/ml): 1.45 fold; Fold change of survived neurons compared to neurons grown without growth factors ([2]; Table 4, exp2, 1 ng/ml): 0.83 fold; Fold change of survived neurons compared to neurons grown without growth factors ([2]; Table 4, exp2, 10 ng/ml): 0.93 fold; Fold change of survived neurons compared to neurons grown without growth factors ([2]; Table 4, exp2, 100 ng/ml): 0.76 fold; Fold change of survived neurons compared to neurons grown without growth factors ([2]; Table 4, exp2, 1000 ng/ml): 0.84 fold; Fold change of survived neurons compared to neurons grown without growth factors ([2]; Table 4, exp3, 1 ng/ml): 1.07 fold; Fold change of survived neurons compared to neurons grown without growth factors ([2]; Table 4, exp3, 10 ng/ml): 1.17 fold; Fold change of survived neurons compared to neurons grown without growth factors ([2]; Table 4, exp3, 100 ng/ml): 1.20 fold; Fold change of survived neurons compared to neurons grown without growth factors ([2]; Table 4, exp3, 1000 ng/ml): 0.97 fold
